ChEMBL document CHEMBL2074339, “The use of a dendrimer-propranolol prodrug to bypass efflux transporters and enhance oral bioavailability” (J Control Release, 2004)

Tests used:
[1] = target: T1, ATP-dependent translocase ABCB1 (Homo sapiens, UniProt P08183); assay: TP_TRANSPORTER: transepithelial transport in Caco2 cells; format: functional, cell-based; conditions: caco-2
[2] = target: T1, ATP-dependent translocase ABCB1; assay: TP_TRANSPORTER: transepithelial transport of propranolol in Caco2 cells; format: functional, cell-based; conditions: caco-2

T1 sequence (P08183 whole entry): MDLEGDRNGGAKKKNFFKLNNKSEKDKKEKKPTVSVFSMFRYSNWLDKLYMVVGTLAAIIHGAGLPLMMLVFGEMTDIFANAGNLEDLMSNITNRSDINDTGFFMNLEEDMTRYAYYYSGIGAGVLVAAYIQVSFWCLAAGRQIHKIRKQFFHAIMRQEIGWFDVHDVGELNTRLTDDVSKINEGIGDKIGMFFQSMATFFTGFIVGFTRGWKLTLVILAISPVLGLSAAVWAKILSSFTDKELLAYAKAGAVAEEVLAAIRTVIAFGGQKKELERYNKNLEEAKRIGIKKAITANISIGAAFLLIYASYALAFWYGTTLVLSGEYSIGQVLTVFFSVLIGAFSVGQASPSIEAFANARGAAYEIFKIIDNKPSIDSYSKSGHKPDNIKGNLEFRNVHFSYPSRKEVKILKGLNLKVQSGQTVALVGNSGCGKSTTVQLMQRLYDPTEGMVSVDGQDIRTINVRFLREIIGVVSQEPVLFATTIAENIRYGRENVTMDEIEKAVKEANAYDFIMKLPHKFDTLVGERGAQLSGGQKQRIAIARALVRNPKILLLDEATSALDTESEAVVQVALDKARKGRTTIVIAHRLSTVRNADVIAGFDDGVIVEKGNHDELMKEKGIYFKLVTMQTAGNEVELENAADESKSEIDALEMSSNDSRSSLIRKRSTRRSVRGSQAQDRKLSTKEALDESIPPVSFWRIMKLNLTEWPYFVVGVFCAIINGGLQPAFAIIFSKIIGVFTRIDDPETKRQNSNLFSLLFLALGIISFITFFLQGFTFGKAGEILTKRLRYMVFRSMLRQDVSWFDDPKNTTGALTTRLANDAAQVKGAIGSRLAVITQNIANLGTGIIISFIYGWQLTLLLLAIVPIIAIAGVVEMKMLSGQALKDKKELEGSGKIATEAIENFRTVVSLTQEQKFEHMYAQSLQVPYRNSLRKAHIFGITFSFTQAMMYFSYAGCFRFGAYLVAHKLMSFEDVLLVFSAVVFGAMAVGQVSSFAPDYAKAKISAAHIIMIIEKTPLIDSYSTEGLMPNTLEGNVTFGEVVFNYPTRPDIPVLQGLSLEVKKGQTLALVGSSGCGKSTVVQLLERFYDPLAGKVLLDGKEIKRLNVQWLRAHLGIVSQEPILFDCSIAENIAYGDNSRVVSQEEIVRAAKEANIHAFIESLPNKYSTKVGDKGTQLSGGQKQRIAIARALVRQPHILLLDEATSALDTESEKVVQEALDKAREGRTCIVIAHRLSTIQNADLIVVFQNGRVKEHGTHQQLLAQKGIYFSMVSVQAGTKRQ

Row | Activity [1] | Activity [2] | Compound
1 | substrate [+] |  | CC(C)NCC(O)COc1cccc2ccccc12 (configuration not stated) [PROPRANOLOL]
2 |  | is not an inhibitor [-] | G3 PAMAM DENDRIMER
